Patent publication US10106532B2, “Inhibitors of beta-hydroxylase for treatment of cancer” (MIDWESTERN UNIVERSITY, priority 2012, dated 2018)
“Also recorded” adds a separate entry of the source. Values belong to the compound of their own block, whether it stands above or below them.

Key:
ASPH [1] = biological target: T1, ASPH (Homo sapiens, UniProt Q12797); assay: high throughput 14CO2 capture enzymatic assay for ASPH β-hydroxylase activity (ASPH mAb capture from lysates of treated FOCUS cells); format: biochemical; parameters: endogenous in cells; host or cells: FOCUS cells (human hepatocellular carcinoma line)
T1 sequence (Q12797 1-758): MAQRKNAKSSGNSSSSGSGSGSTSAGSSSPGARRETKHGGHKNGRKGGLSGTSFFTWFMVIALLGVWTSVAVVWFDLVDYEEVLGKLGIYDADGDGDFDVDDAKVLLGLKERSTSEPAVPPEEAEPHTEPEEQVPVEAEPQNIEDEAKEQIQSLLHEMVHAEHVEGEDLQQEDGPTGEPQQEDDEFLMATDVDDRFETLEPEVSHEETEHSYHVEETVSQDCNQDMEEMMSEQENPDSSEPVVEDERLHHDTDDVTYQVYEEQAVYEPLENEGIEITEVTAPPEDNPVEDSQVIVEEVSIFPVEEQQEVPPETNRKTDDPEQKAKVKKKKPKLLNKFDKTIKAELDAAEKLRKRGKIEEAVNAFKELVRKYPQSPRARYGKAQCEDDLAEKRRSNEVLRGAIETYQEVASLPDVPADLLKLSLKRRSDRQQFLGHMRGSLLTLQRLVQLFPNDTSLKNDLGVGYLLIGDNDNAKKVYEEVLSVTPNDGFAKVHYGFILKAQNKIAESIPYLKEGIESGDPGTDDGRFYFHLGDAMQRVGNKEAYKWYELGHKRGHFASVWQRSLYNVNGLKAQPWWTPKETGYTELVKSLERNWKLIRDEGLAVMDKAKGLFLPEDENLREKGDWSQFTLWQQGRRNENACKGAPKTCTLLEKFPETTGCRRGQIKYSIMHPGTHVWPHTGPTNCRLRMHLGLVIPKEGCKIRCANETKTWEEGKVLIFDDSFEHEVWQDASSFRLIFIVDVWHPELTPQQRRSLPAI
Procedure: In yet another aspect, the disclosure provides a method determining ASPH activity by contacting an EGF-like domain peptide with a detectably-labeled α-ketoglutarate and ASPH enzyme and measuring β-hydroxylase activity. In one embodiment, said α-ketoglutarate is ^14C-labelled, and wherein β-hydroxylase activity is measured by detecting liberated ^14CO2. In one embodiment, said liberated ^14CO2 is captured on a filter and radioactivity quantified. […] In one embodiment, said EGF-like domain comprises the amino acid sequence of […] (SEQ ID NO:1). In one embodiment, said EGF-like domain peptide comprises the consensus sequence of CDXXXCXXKXGNGXCDXXCNNAACXXDGXDC (SEQ ID NO: 2).
FIG. 3A is a diagram of the biochemical reaction catalyzed by ASPH derived from PC cell lysates. FIG. 3B is a cartoon illustrating the read-out to quantify ASPH activity in PC cells and tumors. FIG. 3C is an image of membrane was obtained by a phosphor-imager after a 16 hour exposure of the trapping filter to a phospho-screen. FIG. 3D is a bar graph showing intensities were calculated by Image J software and compared to a DMSO control. Vertical bars represent standard deviation. These figures show methods of measurement and data relating to ASPH catalytic activity.
EGF and EGF-like domains are well known in the art and generally include six cysteine residues which have been shown (in EGF) to be involved in disulfide bonds. The main structure is a two-stranded beta-sheet followed by a loop to a C-terminal short two-stranded sheet. Subdomains between the conserved cysteines vary in length. Examples include those described in Davis, C G, 1990, New Biol. 2(5):410-9; Blomquist et al., 1984, Proc Natl Acad Sci USA. 81(23):7363-7; Hommel et al., […], J Mol Biol. 227(1):271-82; Doolittle et al., 1984, Nature. 307(5951):558-60; Appella et al., 1988, FEBS Lett. 231(1):1-4; Sorkin A., 2001, Biochem Soc Trans. August; 29(Pt 4):480-4; each of which is hereby incorporated by reference). FIGS. 3A-C represents the strategy for development and characterization of the performance of an assay to measure ASPH enzymatic activity. FIG. 3A describes the biochemical reaction catalyzed by ASPH. FIG. 3B depicts the read-out of the assay. Protein lysates were extracted from FOCUS cells (high level of ASPH cell surface expression) treated with 1-10 μM of each parent compound for 24 hours. The lysates were added into 96 well-plates coated with ASPH monoclonal antibodies (mAbs) to add an antigen specific (ASPH) capture step to the assay design. After incubation and washing, only ASPH is captured on each well. The reaction is carried out with 60 μM of an EGF domain containing 39AA peptide, 100 μM FeCl2 and 40 μM ^14C labeled α-ketoglutarate were added into each well. The ^14CO2 was captured on a glass fiber membrane soaked in Ca(OH)2. […] The compound was further characterized for clinical use as an anti-tumor agent for PC and HCC and other ASPH-expressing tumors.

FOCUS cells [2] = assay: MTT assay (cell proliferation, metabolic activity); format: cell-based, human; conditions: micromolar concentrations
Procedure: (§1) A MTT assay was performed to evaluate the effect of MO-1-1100 on cell proliferation and viability. MTT is reduced to purple formazan in living cells. FOCUS cells were used as a high ASPH expressing human HCC cell line. […] The MTT assay measures cellular metabolic activity via NAD(P)H-dependent cellular oxidoreductase enzymes. […] In order to evaluate the effect of long-term exposure of MO-1-1100, the colony formation assay (an assay of malignant potential and phenotype) in which cells were treated with inhibitor for 3 weeks was performed.

FOCUS cells [3] = assay: anchorage independent growth in soft agar; format: cell-based, human
Procedure: The effect of MO-1-1100 on anchorage independent growth in soft agar was evaluated. The ability of forming colonosphere in soft agar is considered to be a rigid test for tumorigenic potential. ASPH expression results in cells acquiring the ability to form colonospheres in soft agar. […] In order to evaluate the effect of ASPH inhibitor for anchorage independent colony formation, FOCUS cells were incubated in soft agar with or without this ASPH enzymatic inhibitor. After 3 weeks incubation, MO-1-1100 reduced colonosphere formation of FOCUS cells (FIG. 9A). […] This assay is a standard method to monitor malignant growth that reflects the ability to form tumors that grow aggressively in vivo.

ASPH [4] = biological target: T1, ASPH; assay: binding to ASPH by isothermal titration calorimetry
Description: In the second step arylhydroxytetronimide was sulfonylated with phenylmethansulfonyl chloride in dry tetrahydrofuran to yield compounds of formula 1 (shown below). Compounds were characterized by 1H and 13C nuclear magnetic resonance, high resolution mass spectroscopy, high performance liquid chromatography, infra-red spectroscopy, melting point, elemental analysis and binding to ASPH by isothermal titration calorimetry.
Candidate parent compounds were selected as inhibitors for β-hydroxylase activity based on crystal structure of the catalytic site in the C-terminal region of ASPH and computer assisted drug design.

FOCUS cells [5] = assay: directional motility, Boyden chamber-type culture inserts; format: cell-based, human; conditions: 5 μM pretreatment for 24 hours, migration 30 min
Procedure: (§2) The β-hydroxylase activity is required for ASPH to mediate its effects on cell motility. Directional motility was measured using Boyden chamber-type culture inserts equipped with porous membranes. FOCUS cells were pretreated with 5 μM of MO-1-1100 and MO-1-500 β-hydroxylase inhibitor for 24 hours, and then placed into the upper chamber. Migration was allowed to proceed for 30 min. ATPLite was used to quantify viable cell density. The cells in the upper well and upper surface of membrane reflects the number of non-migrating cells, luminescence measured at the bottom surface of the membrane reflects the number of migrating and non-adherent cells and luminescence measured in the bottom well was reflect migrating and non-adherent cells. […] Cell invasiveness was assessed by invasion assay using matrigel coated membrane, in which cells were allowed to proceed for 6 hours; those found adhered on the bottom surface of membrane were regarded as invading cells.

FOCUS cells [6] = assay: invasion assay using matrigel coated membrane; format: cell-based, human; conditions: 6 hours, compared to DMSO control
Procedure: as §2

NIH-3T3 cells = assay: MTT assay (cell proliferation, metabolic activity); format: cell-based, mouse
Procedure: as §1

FOCUS HCC cells = assay: colony formation assay; format: cell-based, human; conditions: 1.25 μM
Procedure: as §1

SMILES: NC1=C(OS(=O)(=O)c2ccccc2)C(=O)C(c2ccc(Cl)cc2)O1 (centres unmarked) [Compound 7c, 2-(4-chlorophenyl)-4-[[phenylsulfonyl]oxy]-5-amino-3(2H)-furanone]
melting point: 190 to 195 °C

SMILES: NC1=C(O)C(=O)C(c2ccc(Cl)cc2)O1 (centres unmarked) [Example 1c, 5-amino-4-hydroxy-2-(4-chlorophenyl)-furan-3-one]
melting point: 221 to 222 °C

SMILES: NC1=C(O)C(=O)C(c2ccc(F)c(F)c2)O1 (centres unmarked) [Example 1q, 5-amino-4-hydroxy-2-(3,4-difluorophenyl)-furan-3-one]
melting point: 190 to 194 °C

SMILES: NC1=C(O)C(=O)C(c2cc(F)cc(F)c2)O1 (centres unmarked) [Example 1r, 5-amino-4-hydroxy-2-(3,5-difluorophenyl)-furan-3-one]
melting point: 190 to 191 °C

SMILES: CC(=O)OC1=C(N)OC(c2ccc(Cl)cc2)C1=O (centres unmarked) [Example 2c, 2-(4-chlorophenyl)-4-(acetoxy)-5-amino-3(2H)-furanone]
melting point: 221 to 222 °C

SMILES: CCS(=O)(=O)Nc1oc(-c2ccc(Cl)cc2)c(O)c1O [MO-1-500]
identified as hits (screening for inhibition of β-hydroxylase activity) (ASPH [1]): identified as hits
ASPH enzymatic activity (ASPH [1]; 5 μM): inhibited
ASPH enzymatic inhibitory activity (β-hydroxylase) (ASPH [1]; concentration not given): inhibit
cell proliferation and metabolic activity (FOCUS cells [2]): striking affects; also recorded: growth inhibited
number of colonies formed and colony size in soft agar (FOCUS cells [3]; 1 μM): dramatically reduced
number and size of FOCUS cell colonies in soft agar (FOCUS cells [3]; 0.5, 1, and 5 μM): striking reduction
ASPH binding (ASPH [4]): confirmed to demonstrate ASPH binding
cell migration / motility (FOCUS cells [5]): pronounced effect
invasiveness (FOCUS cells [6]): pronounced effect
specificity for the β-hydroxylase activity of ASPH (NIH-3T3 cells; FOCUS (express ASPH) versus NIH-3T3 (do not express ASPH)): not specific for ASPH
cell proliferation and metabolic activity (NIH-3T3 cells; NIH-3T3 cells, micromolar concentrations): striking affects; also recorded: growth inhibited
colony formation (FOCUS HCC cells): substantial inhibitory effects; also recorded: strikingly inhibits

Now from value to compound:

melting point: 160 to 163 °C
SMILES: NC1=C(O)C(=O)C(c2ccccc2F)O1 (centres unmarked) [Example 1j, 5-amino-4-hydroxy-2-(2-fluorophenyl)-furan-3-one]

melting point: 168 °C
SMILES: NC1=C(O)C(=O)C(c2cccc(F)c2)O1 (centres unmarked) [Example 1k, 5-amino-4-hydroxy-2-(3-fluorophenyl)-furan-3-one]

melting point: 193 °C
SMILES: NC1=C(O)C(=O)C(c2cccc(F)c2F)O1 (centres unmarked) [Example 1m, 5-amino-4-hydroxy-2-(2,3-difluorophenyl)-furan-3-one]

melting point: 182 to 183 °C
SMILES: NC1=C(O)C(=O)C(c2ccc(F)cc2F)O1 (centres unmarked) [Example 1n, 5-amino-4-hydroxy-2-(2,4-difluorophenyl)-furan-3-one]

melting point: 196 °C
SMILES: NC1=C(O)C(=O)C(c2cc(F)ccc2F)O1 (centres unmarked) [Example 1o, 5-amino-4-hydroxy-2-(2,5-difluorophenyl)-furan-3-one]

melting point: 159 to 160 °C
SMILES: NC1=C(O)C(=O)C(c2c(F)cccc2F)O1 (centres unmarked) [Example 1p, 5-amino-4-hydroxy-2-(2,6-difluorophenyl)-furan-3-one]
